Data taken from patent US9452194B2, “Methods for treating HCV” (AbbVie Inc., priority 2011, dated 2016).

Legend:
1b-Con1 replicons = assay: Predominant resistant variants selected in replicons, fold resistance; format: cell-based, Hepatitis C virus
Method: (§1) Predominant resistant variants selected by Compound 1, 2, or 4 in genotype 1 replicons were also determined.

1a-H77 replicons = assay: as above; format: cell-based, Hepatitis C virus
Method: as §1

[1] = Bioavailability of solid formulation of Compound 2 with increased binder; format: in vivo; details: 250 mg in the improved formulation versus 400 mg in the original formulation

In the case of Cc1cnc(C(=O)N[C@H]2CCCCC/C=C\[C@@H]3C[C@@]3(C(=O)NS(=O)(=O)C3CC3)NC(=O)[C@@H]3C[C@@H](Oc4nc5ccccc5c5ccccc45)CN3C2=O)cn1 [Compound 1, (2R,6S,13aS,14aR,16aS,Z)-N-(cyclopropylsulfonyl)-6-(5-methylpyrazine-2-carboxamido)-5,16-dioxo-2-(phenanthridin-6-yloxy)-1,2,3,5,6,7,8,9,10,11,13a,14,14a,15,16,16a-hexadecahydrocyclopropa[e]pyrrolo[1,2-a][1,4]diazacyclopentadecine-14a-carboxamide], the fold resistance (1b-Con1 replicons; variant A156T) is reported as 9 fold, the fold resistance (1b-Con1 replicons; variant D168V) is reported as 190 fold and the fold resistance (1b-Con1 replicons; variant R155K) is reported as 48 fold. It also gave a fold resistance (1a-H77 replicons; variant D168A) of 48 fold and a fold resistance (1a-H77 replicons; variant R155K) of 26 fold.
COc1c(-c2ccc3cc(NS(C)(=O)=O)ccc3c2)cc(-n2ccc(=O)[nH]c2=O)cc1C(C)(C)C [Compound 2, N-(6-(3-tert-butyl-5-(2,4-dioxo-3,4-dihydropyrimidin-1(2H)-yl)-2-methoxyphenyl)naphthalen-2-yl)methanesulfonamide] gave a fold resistance (1b-Con1 replicons; variant C316Y) of 1400 fold, a fold resistance (1b-Con1 replicons; variant D559G) of 100 fold and a fold resistance (1b-Con1 replicons; variant M414T) of 26 fold. It also gave a fold resistance (1a-H77 replicons; variant C316Y) of 1600 fold, a fold resistance (1a-H77 replicons; variant M414T) of 36 fold and a fold resistance (1a-H77 replicons; variant S556G) of 15 fold. The fold resistance (1a-H77 replicons; variant Y448C) was 980 fold and the “bioequivalence of improved solid formulation (increased amount of binder, e.g. copovidone)” value [1] was “bioequivalent”.
COC(=O)N[C@H](C(=O)N1CCC[C@H]1C(=O)Nc1ccc([C@@H]2CC[C@@H](c3ccc(NC(=O)[C@@H]4CCCN4C(=O)[C@@H](NC(=O)OC)C(C)C)cc3)N2c2ccc(C(C)(C)C)cc2)cc1)C(C)C [Compound 4] showed a fold resistance (1b-Con1 replicons; variant Y93H) of 55 fold, a fold resistance (1a-H77 replicons; variant M28T) of 9000 fold and a fold resistance (1a-H77 replicons; variant M28V) of 60 fold. The fold resistance (1a-H77 replicons; variant Q30R) was 800 fold, the fold resistance (1a-H77 replicons; variant Y93C) was 1700 fold and the fold resistance (1a-H77 replicons; variant Y93H) was 41000 fold.
